Laboratory results taken from patent US5143906A, “Kedarcidin antitumor chromophore and pharmaceutical composition containing same” (Bristol-Myers Squibb Company, priority 1991, dated 1992).
≈ marks a conversion by molar mass, not a printed value. Entries after “also recorded” stand apart in the source; their conditions may differ.

Experiments:
[1] = tested on: human colon adenocarcinoma HCT116 drug sensitive line; test: In vitro cytotoxicity assay (XTT), HCT116; format: cell-based
Description: (§1) The A2780/DDP cell line is reported to be resistant through enhanced DNA repair mechanisms and elevated GSH/GST levels. Cells were cultured in McCoy's media and 10% fetal bovine serum. When in log phase growth, 4×10^3 cells/well were plated into 96 well microtiter plates and incubated at 37° C. in […] /5% CO2 for 24 hours to allow cell attachment. Compounds were added to the top row of wells, serially diluted (4 fold dilutions) and incubated for an additional 72 hours. The number of viable cells in each well was then quantitated as previously described^2 by adding 0.05 mg/ml final concentration tetrazolium stain (XTT) in the presence of 0.005 mM final concentration phenazine methosulfate. After incubation at room temperature for 3 hours to allow color development, optical density values were measured using a Dynatech MR600 plate reader at […]. IC50 values (drug concentration inhibiting cell growth by 50%) were calculated using linear regression analysis of the optical density readings. Triplicate determinations on separate 96 well plates were done for each drug on each cell line tested.

[2] = tested on: HCT116/VP35 drug resistant cell line; test: In vitro cytotoxicity assay (XTT), HCT116/VP35; format: cell-based, human
Description: as §1

[3] = tested on: HCT116/VM46 drug resistant cell line; test: In vitro cytotoxicity assay (XTT), HCT116/VM46; format: cell-based, human
Description: as §1

[4] = tested on: human ovarian carcinoma A2780 drug sensitive cell line; test: In vitro cytotoxicity assay (XTT), A2780; format: cell-based
Description: as §1

[5] = tested on: A2780/DDP drug resistant cell line; test: In vitro cytotoxicity assay (XTT), A2780/DDP; format: cell-based, human
Description: as §1

[6] = tested on: several human tumor cell lines; test: In vitro cytotoxicity assay, several human tumor cell lines (summary); format: cell-based
Description: as §1, with “The cell lines used to evaluate in vitro cytotoxic potency include the human colon adenocarcinoma HCT116 drug sensitive line, HCT 116/VP35 and HCT116/VM46 daughter drug resistant cell lines that have low Topoisomerase II and elevated P-170 glycoprotein levels^1; respectively, and the human ovarian carcinoma A2780 drug sensitive and the A2780/DDP daughter drug resistant cell line. The A2780/DDP” for “The A2780/DDP”, “density readings. […]” for “density readings. Triplicate determinations on separate 96 well plates were done for each drug on each cell line tested.”

[7] = tested on: sc implanted B16 melanoma; test: Antitumor activity against sc implanted B16 melanoma; format: in vivo, murine (BDF1 mice); conditions: for % T/C / Av. wgt. change / Med. surv. time / No. of mice alive on d 5: iv
Description: The B-16 murine melanoma was maintained as a subcutaneous growing tumor in C57BL/6 mice. Experimental tumor models used BDF^1 mice implanted with a 25 mg tumor fragment implanted subcutaneously via trochar on day 0. Kedarcidin chromophore was administered iv on a Q1DX1;1 schedule. Mice were weighed on day 0 and on day 9.

P388 murine leukemia = P388 murine leukemia models, ip and iv implanted (summary); format: in vivo, murine (CDF1 mice)
Description: The P388 tumor was maintained in ascitic form in DBA/2 mice. Experimental tumor models used CDF^1 mice implanted via the intraperitoneal or intravenous route with 1×10^6 leukemia cells on day 0 and dosed with drugs according to the indicated route and schedule. Mice were weighed on day 0 and on day 5 or 6. Weight loss of 20% or greater was an indicator of drug toxicity. Each dose group consisted of 6 mice with 10 mice in the untreated control group. The dosing schedule was Q1DX1;1. Death checks were performed daily and the median life span of each group determined. […] Experiments were terminated on or about day 30.

Stability in solution = format: physicochemical

COc1c(OC(C)C)cc2cc(O)c(C(=O)N[C@@H]3CC(=O)OC[C@@H](O[C@H]4C[C@H](O)[C@H](N(C)C)[C@H](C)O4)/C4=C/C#C[C@@H]5O[C@]56C(=C[C@H](Oc5ccc3nc5Cl)[C@@H]6O[C@H]3C[C@@](C)(O)[C@@H](O)[C@H](C)O3)C#C4)cc2c1OC [Kedarcidin chromophore]
IC50 ([1]; HCT116, 72 h, VP-16 values: mean of triplicate determinations from last 6 experiments): 0.4 ng/mL (≈ 0.388 nM) | fold more potent than VP-16 ([1]; VP-16 sensitive cell line (HCT116)): 1725 fold | cross-resistance with VP-16 ([2]; HCT116/VP35): not cross-resistant | IC50 ([2]; HCT116/VP35, 72 h, VP-16 values: mean of triplicate determinations from last 6 experiments): 0.3 ng/mL (≈ 0.291 nM) | cross-resistance with VP-16 ([3]; HCT116/VM46): not cross-resistant | IC50 ([3]; HCT116/VM46, 72 h, VP-16 values: mean of triplicate determinations from last 6 experiments): 0.3 ng/mL (≈ 0.291 nM) | IC50 ([4]; A2780, 72 h, VP-16 values: mean of triplicate determinations from last 6 experiments): 0.2 ng/mL (≈ 0.194 nM) | fold more potent than VP-16 ([4]; VP-16 sensitive cell line (A2780)): 285 fold | fold less potent on the resistant cell line compared to the sensitive cell line ([5]; A2780/DDP vs A2780, 4320 min): about 6.6 fold | IC50 ([5]; A2780/DDP, 72 h, VP-16 values: mean of triplicate determinations from last 6 experiments): 1.3 ng/mL (≈ 1.26 nM) | ability to inhibit cell growth ([6]; compared to VP-16): extremely potent | antitumor in vitro activity ([6]; several human tumor cell lines): potent antitumor in vitro activity | activity by the lifespan criterion ([7]; Exp. 796): active by the lifespan criterion | activity by the tumor growth delay criterion ([7]; Exp. 796): Neither kedarcidin chromophore or kedarcidin were active | optimum dose ([7]; Exp. 796, iv one day after tumor implant): 0.062 mg/kg/inj | % T/C ([7]; Exp. 796, 0.062 mg/kg/dose): 164% | Av. wgt. change ([7]; Exp. 796, 0.062 mg/kg/dose): 1.1 g | Med. surv. time ([7]; Exp. 796, 0.062 mg/kg/dose): 41.0 | No. of mice alive on d 5 ([7]; Exp. 796, 0.062 mg/kg/dose): 8/8 | % T/C ([7]; Exp. 796, 0.125 mg/kg/dose): 126% | Av. wgt. change ([7]; Exp. 796, 0.125 mg/kg/dose): 1.1 g | Med. surv. time ([7]; Exp. 796, 0.125 mg/kg/dose): 31.5 | No. of mice alive on d 5 ([7]; Exp. 796, 0.125 mg/kg/dose): 8/8 | % T/C ([7]; Exp. 796, 0.25 mg/kg/dose): TOX | Av. wgt. change ([7]; Exp. 796, 0.25 mg/kg/dose): -1.0 g | Med. surv. time ([7]; Exp. 796, 0.25 mg/kg/dose): TOX | No. of mice alive on d 5 ([7]; Exp. 796, 0.25 mg/kg/dose): 2/8 | % T/C ([7]; Exp. 796, 0.5 mg/kg/dose): TOX | Med. surv. time ([7]; Exp. 796, 0.5 mg/kg/dose): TOX | No. of mice alive on d 5 ([7]; Exp. 796, 0.5 mg/kg/dose): 0/8 | activity and potency compared to kedarcidin ([7]; conclusion, compared directly): as active as, and slightly more potent than, kedarcidin | antitumor activity by lifespan criterion ([7]; sc implanted B16, conclusion): significant antitumor activity; also recorded: in vivo antitumor activity | efficacy and potency compared to kedarcidin (P388 murine leukemia; P388 model): as efficacious as, and slightly more potent than, kedarcidin; also recorded: as active as, and slightly more potent than, kedarcidin | antitumor activity in P388 models (P388 murine leukemia; ip, ip or iv, iv model): both potent and efficacious; also recorded: significant antitumor activity; also recorded: in vivo antitumor activity | Stability (Stability in solution): Very unstable | Decomposition in solution (Stability in solution; in solution with benzene, methanol, chloroform and DMSO): Decomposes within hours
